Results as given in patent US20240391956A1, “STAPLED PEPTIDES AND METHODS THEREOF” (FOG PHARMACEUTICALS, INC., priority 2023, published 2024).
Where two headings read alike, the source gives them in different places. *1 amine or outer side, *2 acyl side, *3 side chain or, on linkers, in order; H or OH if unused. Where a SMILES comes first, the peptide text is derived from it. Bridges are numbered along the chain shown (N, C = ends). [ ]: non-standard residue; d: D form. Phenylene(1,4-NHCOCH2)2 = O=C(C[*:1])Nc1ccc(NC(=O)C[*:2])cc1; dNle = CCCC[C@@H](N)C(=O)O

Columns and labels:
MDM2 (residues 25-109) = target: T1, MDM2 (residues 25-109) (Homo sapiens, UniProt Q00987); assay: SPR binding to immobilized biotinylated MDM2 25-109 (Biacore 8K)
T1 construct: MDM2 (residues 25-109) with an N-terminal 6×His-yBBr-TEV tag was recombinantly expressed in E. coli; made in house; host or cells: E. coli BL21 CodonPlus
T1 sequence (Q00987 25-109): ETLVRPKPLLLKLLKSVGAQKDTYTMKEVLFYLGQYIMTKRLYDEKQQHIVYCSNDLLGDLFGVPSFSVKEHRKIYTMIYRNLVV
Procedure: SPR experiments were performed on a Biacore 8K (Cytiva) instrument at 25° C. in 1×HBS-P+ buffer (Cytiva) with 1% DMSO. A SA Series S sensor chip was docked and pre-conditioned with three injections of 50 mM NaOH/1 M NaCl to remove unbound streptavidin from the surface. Biotinylated MDM2^25-109 were diluted to 2 μg/mL in running buffer and immobilized to channels 1 through 8 at 5 μL/min for 71 sec for a final immobilization level of ˜390 RU. Peptides were diluted to 5 μM in running buffer then serially diluted 2-fold for a total of seven concentrations with one blank (7-point two-fold peptide dilution series with top concentration=5 μM and bottom concentration=78 nM). Compounds were injected over the immobilized and reference surfaces at 30 μL/min for 60 sec and then allowed to dissociate for 180 sec without surface regeneration (N=1). Data was analyzed using Biacore Insight Evaluation software (Cytiva). Sensorgrams were double referenced, with most of them fitted to a 1:1 steady state affinity model, with a few fitted with both steady state affinity model and kinetics model.
MDM2 expression: MDM2 (residues 25-109) with an N-terminal 6×His-yBBr-TEV tag was recombinantly expressed in E. coli BL21 CodonPlus cells (Agilent) from pET-derived expression vectors (Novagen) (“6×His” disclosed as SEQ ID NO: 13). The cells were induced at OD600=0.6 with 1 mM isopropyl β-D-1-thiogalactopyranoside (IPTG) for 4 hours at 37° C., then harvested and resuspended in 25 mM Tris-HCl pH 7.5, 300 mM NaCl, 10% glycerol, 1 mM PMSF. For purification, the pellet was lysed with a tip sonicator, and pelleted at 22,000×g for 30 minutes at 4° C. The pellets were washed with 20 mM Tris-HCl pH 8.0, 150 mM NaCl, 1 M urea, 1.0% triton X-100 three times, and the inclusion body was dissolved in 20 mM Tris-HCl pH 8.0, 150 mM NaCl, 8 M urea, and 2 mM ß-mercaptoethanol (ß-me). The supernatant was purified with Ni-NTA resin (Qiagen), eluting with 20 mM Tris-HCl pH 8.0, 150 mM NaCl, 8 M urea, 2 mM ß-me, and 250 mM imidazole. Protein elutes were diluted to ˜0.1 mg/mL and dialyzed into buffers containing 10 mM Tris-HCl pH 8.0, 150 mM NaCl, 2 mM ß-me, with 4, 2, 1, or 0 M urea, at 4° C. for 8 hours for each urea gradient. Urea-free proteins were concentrated with Amicon spin filters (Millipore Sigma) to ˜1 mg/mL and biotinylated via the yBBr reaction according to reported procedures (e.g., reported in Yin, J. et al. Genetically encoded short peptide tag for versatile protein labeling by Sfp phosphopantetheinyl transferase. Proceedings of the National Academy of Sciences 102, 15815-15820 (2005)). Biotinylated proteins were pooled, concentrated, and loaded onto a Superdex™ 10/300 75 pg (Cytiva) SEC column and eluted in 20 mM HEPES pH 7.0, 200 mM NaCl, 5% glycerol, 0.5 mM tris(2-carboxyethyl) phosphine (TCEP). Fractions containing pure protein were collected, pooled, concentrated to ˜1 mg/mL and stored at −80° C. In some embodiments, such MDM2 preparation were utilized in biochemical assays.

[1] = target: T2, CHIP23-303 recombinant protein (Homo sapiens, UniProt Q9UNE7); assay: Competition fluorescence polarization with CHIP23-303 and HSP70-derived probe 5FAM-bAla-[…]; assay type: binding; conditions: competition FP, 400 nM CHIP23-303, 20 nM probe, 1 hour at room temperature; read-out: Measured KD
T2 construct: 6xHis (N, cleaved yes); TEV site (N, cleaved yes); made in house; host or cells: E. coli BL21 CodonPlus
T2 sequence (Q9UNE7 23-303): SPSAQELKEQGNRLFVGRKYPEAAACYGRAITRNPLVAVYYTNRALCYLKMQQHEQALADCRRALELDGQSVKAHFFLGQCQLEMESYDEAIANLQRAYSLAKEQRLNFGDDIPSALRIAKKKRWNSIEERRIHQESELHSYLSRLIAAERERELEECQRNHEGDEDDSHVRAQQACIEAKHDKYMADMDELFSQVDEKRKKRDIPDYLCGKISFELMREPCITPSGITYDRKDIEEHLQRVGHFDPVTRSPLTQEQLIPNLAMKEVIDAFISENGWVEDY
Procedure: For the competition FP of CHIP, stapled peptides at 10 mM in DMSO were serially diluted 1:3 in DMSO for a total of 11 concentrations using a Mosquito LV (SPT Labtech), then diluted 1000-fold in buffer (1×HBS-P+, Cytiva) in duplicate by the Mosquito LV (SPT Labtech) into a black polystyrene 384-well plate (Corning) (11-point three-fold peptide dilution series with top concentration=10 μM). The assay was performed with 400 nM CHIP23-303 recombinant protein as target, and 20 nM BCHIP-binding peptide as probe (5FAM-bAla-[…] (SEQ ID NO: 18), derived from HSP70). The plate was incubated and protected from light for 1 hour at room temperature prior to reading. Reads were performed on a CLARIOstar plate reader (BMG Labtech) with excitation at 485 nm, emission at 525 nm, and cutoff at 504 nm. Data were fitted to a 1:1 binding model with Hill slope using an in-house script.
In some embodiments, CHP polypeptide was prepared as follows: CHIP (residues 23-303 for competition FP and 23-154 for crystallography) with an N-terminal 6×His-TEV tag was recombinantly expressed in E. coli BL21 CodonPlus cells (Agilent) from a pET21b-derived expression vector (Novagen) (“6×His” disclosed as SEQ ID NO: 13). The cells were induced at OD600=0.6 with 1 mM IPTG for 4 hours at 37° C., then harvested and resuspended in 50 mM Tris-HCl pH 8.0, 500 mM NaCl, 10 mM imidazole, 10% glycerol, and 10 mM ß-me. For purification, the pellet was lysed with a tip sonicator with power level set at 400 W, 3 seconds on and 3 seconds off for 20 min, pelleted at 22,000×g for 30 minutes at 4° C. The supernatant was purified with Ni-NTA resin (Qiagen), eluting with 250 mM imidazole. Eluted proteins were pooled, concentrated, and TEV-cleaved by adding TEV protease at a ratio of 1:10 protease to protein and incubated overnight at 4° C. TEV-cleaved proteins were loaded onto a Superdex™ 10/300 75 pg (Cytiva) SEC column, and eluted in 50 mM HEPES, pH 8.0, 150 mM NaCl, 10% glycerol, 2 mM DTT. Fractions containing pure protein were collected, pooled, concentrated to 30 mg/mL and stored at −80° C. […]

Row | SMILES | Kd (MDM2 (residues 25-109)) | also measured
1 | CC(=O)N[C@H](CC(=O)O)C(=O)N1CCC[C@@H]1C(=O)N[C@H](C)C(=O)N[C@H](Cc1c[nH]c2ccccc12)C(=O)N[C@H](CC(N)=O)C(=O)N[C@H](Cc1c[nH]cn1)C(=O)N[C@@H]1CSCC(=O)Nc2ccc(cc2)NC(=O)CSC[C@H](C(=O)N[C@H](CO)C(=O)N[C@H](CCC(=O)O)C(=O)N[C@@H](C(N)=O)C(C)C)NC(=O)[C@@H](C(C)C)NC(=O)[C@@H](Cc2ccccc2)NC(=O)[C@@H](C)NC(=O)[C@@H](C)NC(=O)[C@@H](Cc2ccc(O)cc2)NC(=O)[C@@H](CCC(=O)O)NC1=O [H102, Ac-dpawnhceyaafvcsev-NH2] (Ac-[dD][dP][dA][dW][dN][dH][dC][dE][dY][dA][dA][dF][dV][dC][dS][dE][dV]-NH2; linker 7-14 via Phenylene(1,4-NHCOCH2)2) | 2700 nM | –
2 | CCCC[C@H]1NC(=O)[C@@H](C)NC(=O)[C@@H](C)NC(=O)[C@@H](CCC(=O)O)NC(=O)[C@@H](CCCC)NC(=O)[C@H](NC(=O)[C@@H](CCC(=O)O)NC(=O)[C@@H](Cc2ccc(O)cc2)NC(=O)[C@@H](Cc2c[nH]c3ccccc23)NC(=O)[C@@H](C)NC(=O)[C@H]2CCCN2C(=O)[C@@H](CC(=O)O)NC(C)=O)CSCC(=O)Nc2ccc(cc2)NC(=O)CSC[C@H](C(=O)N[C@H](CCC(N)=O)C(=O)N[C@H](CCC(N)=O)C(=O)N[C@@H](C(N)=O)C(C)C)NC(=O)[C@@H](CCCC)NC1=O [H103, Ac-dpawyecm*eaam*m*cqqv-NH2] (Ac-[dD][dP][dA][dW][dY][dE][dC][dNle][dE][dA][dA][dNle][dNle][dC][dQ][dQ][dV]-NH2; linker 7-14 via Phenylene(1,4-NHCOCH2)2) | 880 nM | –
3 | CCCC[C@H]1NC(=O)[C@@H](CC(=O)O)NC(=O)[C@@H](C)NC(=O)[C@@H](C)NC(=O)[C@@H](CC(C)C)NC(=O)[C@@H](CC(N)=O)NC(=O)[C@H](NC(=O)[C@@H](CCC(=O)O)NC(=O)[C@H](NC(=O)[C@@H](CC(C)C)NC(=O)[C@@H](C)NC(=O)[C@H]2CCCN2C(=O)[C@@H](CC(=O)O)NC(C)=O)C(C)C)CSCC(=O)Nc2ccc(cc2)NC(=O)CSC[C@H](C(=O)N[C@H](Cc2c[nH]cn2)C(=O)N[C@H](Cc2ccccc2)C(=O)N[C@H](Cc2ccc(O)cc2)C(N)=O)NC1=O [H104, Ac-dpalvecnlaadm*chfy-NH2] (Ac-[dD][dP][dA][dL][dV][dE][dC][dN][dL][dA][dA][dD][dNle][dC][dH][dF][dY]-NH2; linker 7-14 via Phenylene(1,4-NHCOCH2)2) | 1800 nM | –
4 | CCCC[C@@H](NC(=O)[C@@H](CCC(N)=O)NC(=O)[C@@H](CC(C)C)NC(=O)[C@H]1CSCC(=O)Nc2ccc(cc2)NC(=O)CSC[C@@H](NC(=O)[C@H](NC(=O)[C@@H](C)NC(=O)[C@@H](Cc2c[nH]c3ccccc23)NC(=O)[C@@H](C)NC(=O)[C@H]2CCCN2C(=O)[C@@H](CC(=O)O)NC(C)=O)[C@H](C)O)C(=O)N[C@H](CCCC)C(=O)N[C@H](CC(=O)O)C(=O)N[C@H](C)C(=O)N[C@H](C)C(=O)N[C@H](CC(C)C)C(=O)N[C@H](CC(N)=O)C(=O)N1)C(N)=O [H106, Ac-dpawatcm*daalnclqm*- NH2] (Ac-[dD][dP][dA][dW][dA][dT][dC][dNle][dD][dA][dA][dL][dN][dC][dL][dQ][dNle]-NH2; linker 7-14 via Phenylene(1,4-NHCOCH2)2) | 1800 nM | –
5 | CC(=O)N[C@H](CC(=O)O)C(=O)N1CCC[C@@H]1C(=O)N[C@H](C)C(=O)N[C@H](CO)C(=O)N[C@H](CCCNC(=N)N)C(=O)N[C@H](CC(N)=O)C(=O)N[C@@H]1CSCC(=O)Nc2ccc(cc2)NC(=O)CSC[C@H](C(=O)N[C@H](CCC(=O)O)C(=O)N[C@H](Cc2ccc(O)cc2)C(=O)N[C@H](Cc2c[nH]c3ccccc23)C(N)=O)NC(=O)[C@@H](CC(C)C)NC(=O)[C@@H](Cc2c[nH]cn2)NC(=O)[C@@H](C)NC(=O)[C@@H](C)NC(=O)[C@@H](Cc2c[nH]c3ccccc23)NC(=O)[C@@H](CCC(N)=O)NC1=O [H107, Ac-dpasrncqwaahlceyw-NH2] (Ac-[dD][dP][dA][dS][dR][dN][dC][dQ][dW][dA][dA][dH][dL][dC][dE][dY][dW]-NH2; linker 7-14 via Phenylene(1,4-NHCOCH2)2) | – | Kd (MDM2 (residues 25-109); SPR, 25° C., 7-point two-fold dilution, top concentration 5 μM, N=1, read-out: Measured KD): 1100 nM
6 | CCCC[C@H]1NC(=O)[C@@H](C)NC(=O)[C@@H](C)NC(=O)[C@@H](CCCC)NC(=O)[C@@H](C(C)C)NC(=O)[C@H](NC(=O)[C@@H](CCC(N)=O)NC(=O)[C@@H](Cc2c[nH]c3ccccc23)NC(=O)[C@@H](CO)NC(=O)[C@@H](C)NC(=O)[C@H]2CCCN2C(=O)[C@@H](CC(=O)O)NC(C)=O)CSCC(=O)Nc2ccc(cc2)NC(=O)CSC[C@H](C(=O)N[C@@H](C(=O)N[C@H](CC(C)C)C(=O)N[C@H](CC(=O)O)C(N)=O)C(C)C)NC(=O)[C@@H](CC(=O)O)NC1=O [H109, Ac-dpaswqcvm*aam*dcvld-NH2] (Ac-[dD][dP][dA][dS][dW][dQ][dC][dV][dNle][dA][dA][dNle][dD][dC][dV][dL][dD]-NH2; linker 7-14 via Phenylene(1,4-NHCOCH2)2) | 2400 nM | –
7 | CC[C@@H](C)[C@@H](NC(=O)[C@@H](CC(N)=O)NC(=O)[C@@H](Cc1ccc(O)cc1)NC(=O)[C@H]1CSCC(=O)Nc2ccc(cc2)NC(=O)CSC[C@@H](NC(=O)[C@@H](CC(=O)O)NC(=O)[C@@H](CCC(=O)O)NC(=O)[C@@H](Cc2c[nH]c3ccccc23)NC(=O)[C@H]2CCCN2C(C)=O)C(=O)N[C@H](C)C(=O)N[C@H](Cc2c[nH]c3ccccc23)C(=O)N[C@H](Cc2ccccc2)C(=O)N[C@H](C)C(=O)N[C@H](Cc2c[nH]c3ccccc23)C(=O)N[C@H](C)C(=O)N1)C(N)=O [H201, Ac-pwedcawfawacyni-NH2] (Ac-[dP][dW][dE][dD][dC][dA][dW][dF][dA][dW][dA][dC][dY][dN][dI]-NH2; linker 5-12 via Phenylene(1,4-NHCOCH2)2) | – | Kd [1]: 470 nM
